Series [1] is described as follows: refractive index (Na D-line) (dimensionless). Particulars: 101.33 kPa, Liquid, Standard Abbe refractometry.
The conditions of series [2]: Liquid; for mass density: 101.33 kPa; for vapor or sublimation pressure: 383.15 K, Ebulliometric method (Recirculating still).

Numbers after ± are expanded uncertainties.

The refractive index is the speed of light in vacuum divided by its phase velocity in the sample. Usually mass density stands for the mass of a sample divided by its volume. One may read the vapor or sublimation pressure as the pressure of vapour in equilibrium with the condensed phase. For the molecule `Nc1ccccc1` [aniline], the refractive index in series [1] (293.15 K) is given as 1.5862 ± 0.0007. Besides, the mass density in series [2] (293.15 K) is on record as 1021.72 ± 0.18 kg/m3. Further, the “vapor or sublimation pressure” value in series [2] amounted to 9.21 ± 0.02 kPa.
Regarding `NC1CCCCC1` [cyclohexylamine], the refractive index in series [1] (288.15 K) stood at 1.4624 ± 0.0007. Further, in series [2] (303.15 K), the mass density is 858.2 ± 0.23 kg/m3.
As for `CCCCCCCC` [octane], the refractive index in series [1] (298.15 K) turned out to be 1.3946 ± 0.0007. Moreover, the mass density in series [2] (298.15 K) was 698.49 ± 0.39 kg/m3. Besides, the “vapor or sublimation pressure” value in series [2] turned out to be 64.09 ± 0.07 kPa.
In the case of `Cc1ccccc1` [toluene], the refractive index in series [1] (293.15 K) worked out at 1.496 ± 0.0007. Moreover, in series [2] (293.15 K), the mass density came to 866.78 ± 0.23 kg/m3.
Regarding `O` [water], the refractive index in series [1] (293.15 K) worked out at 1.3336 ± 0.0007.

The values above are taken from the NIST ThermoML archive (doi:10.1021/je0505366).
